Results on two compounds are retold here after patent US20220235073A1, “ARTEMISININ-DERIVATIVE N-HETEROCYCLIC CARBENE GOLD(I) HYBRID COMPLEXES” (CENTRE NATIONAL DE LA RECHERCHE SCIENTIFIQUE, priority 2019, published 2022).

Usually GI50 stands for the concentration giving 50% growth inhibition. Low values mean more potent growth inhibition, high ones less potent growth inhibition. Usually IC50 stands for the concentration that gives 50% inhibition.

Where two headings read alike, the source gives them in different places.

Assay [1] deals with T24 human bladder carcinoma cells. Nature of the assay: Cell viability MTT assay, T24. Format: cell-based. The note with it: for GI50: 72 h, MTT assay; for IC50: Table 3, tumor cell model. The protocol: (§1) PC-3 human prostate cancer cells, and LAMA chronic myeloid leukemia were cultured in RPMI 1640 containing 10% fetal bovine serum and 1% antibiotics (100 U/mL penicillin and 100 μg/mL streotimycin) at 37° C. in 5% CO2 humidified incubators. HL60 […] were cultured in RPMI 1640 containing 15% fetal bovine serum and 1% antibiotics (100 U/mL penicillin and 100 μg/mL streotimycin) at 37° C. in 5% CO2 humidified incubators. HepG-2 human liver cancer cells were cultured in EMEM containing 10% of FBS, 1% of nonessential amino acids, 1 mM of Na-pyruvate, 1% of PenStrep antibiotics and 600 μg/mL of Geneticin. A549 human lung carcinoma cells, T24 human bladder carcinoma cells, MCF-7 human breast adenocarcinoma cells, U-2OS human osteosarcoma and NIH3T3 murine fibroblast cells were cultured in DMEM medium containing 10% fetal bovine serum and 1% antibiotics at 37° C. in 5% CO2 humidified incubators. MC3T3 mouse osteoblast cells were cultured in MEM medium containing 10% fetal bovine serum and 1% antibiotics at 37° C. in 5% CO2 humidified incubators. RWPE-1 human prostate normal cells were cultured in K-SFM medium containing 0.05 mg/ml bovine pituitary extract (BPE) and 5 ng/ml epidermal growth factor (EGF) at 37° C. in 5% CO2 humidified incubators. The MTT reagent (3-(4,5-dimethylthiazol-2-yl)-2,5-diphenyltetrazolium bromide) was used to determine cell death as originally described by Mosmaneland modified by Cuvillier et al.^[6] Briefly, cells were seeded 5,000 to 10,000 cells/well in 24-well plates depending on the cell type and allowed to attach overnight. All of the complexes were dissolved in DMSO. The concentration of the complexes was calculated according to the elemental composition of the complexes determined by the elemental analyses. Media in the presence of the tested complexes were added and serially diluted to various concentrations (from 5 μM to 0.01 μM). Next to these concentrations, for DHA 50, 20 and 10 μM and for the cationic bisNHC gold(I) complex 3 0.001 μM have been used. […] After 72 h of treatment, cells were incubated at 37° C. and 5% CO2 with 25 μL MTT solution (5 mg/mL; Sigma-Aldrich) in 24-well plates for approximately 3 to 4 h. After solubilization with 500 μL of lysis buffer (DMSO), formazan was quantified by spectrophotometry with a microplate reader at 570 nm absorbance. The GI50 values corresponding to the concentration that caused 50% inhibition of cell proliferation were calculated from dose-response curves obtained by nonlinear regression analysis (Prism 8, Graphpad Software). All the results were calculated from data obtained in three independent experiments.
(Tetrazolium dyes change colour on reduction, which living cells bring about.)

The subject of the next assay is Nrf2. Nature of the assay: NRF2 transcriptional activity, ARE Reporter Hep G2 cell line. The assay is classed as cell-based, human. The note with it: ARE Reporter Hep G2 cells, 16 hours, any dose. The protocol: The ARE Reporter Hep G2 cell line containing a firefly luciferase gene under the control of ARE stably integrated into Hep G2 cells was used to quantify NRF2 transcriptional activity after 16 hours of treatment with the indicated doses of the different complexes. The results are shown as fold induction of ARE luciferase reporter expression. Dashed line indicates a fold induction of 1 (values >1 mean activation and values <1 mean inhibition).
ARE-reporter-HepG-2 cells were harvested from culture in Growth Medium 1K and they were seeded at a concentration of 40,000 cells/well into white clear-bottom 96-well microplate in 45 μL of Growth Medium 1K without Geneticin. Cells were allowed to attach overnight and then treated with different concentrations of complex 2a (from 0.01 μM to 20 μM), auranofin (from 0.01 μM to 20 μM) or DHA (from 0.01 μM to 3, 5, 10, 20 and 50 μM), and complex (from 0.01 μM to 20 μM). After incubation at 37° C. and 5% CO2 for 16 hours, ONE-Step luciferase assay reagent (100 μL) was added and rock at room temperature for over 15 minutes. Then the luminescence of each well was determined by CLARIOstar microplate reader to quantify induction of ARE. Three independent experiments were performed as biological triplicates. The results are in FIG. 4.

In assay [2] the test system is MC3T3 mouse osteoblast cells. Put plainly: Cell viability MTT assay, MC3T3. Format: cell-based. The note with it: for GI50: 72 h, MTT assay; for Selectivity index MC3T3: SI = GI50 (MC3T3)/GI50 (PC-3); for IC50: Table 3, non tumoral cell model, read-out: IC50 MC3-T3 (osteoblasts); for Specificity Bone: MC3-T3 (normal immortalized)/U2OS (tumoral): ratio of IC50, tumoral versus non tumoral cells of same tissue. The protocol:
as §1

Assay [3] concerns PC-3 human prostate cancer cells. Put plainly: Cell viability MTT assay, PC-3. The note with it: for GI50: 72 h, MTT assay; for IC50: Table 3, tumor cell model. The assay is classed as cell-based.
The test system of assay [4] is LAMA chronic myeloid leukemia. Put plainly: Cell viability MTT assay, LAMA. The assay is classed as cell-based, human. The conditions noted are these: for GI50: 72 h, MTT assay; for IC50: Table 3, tumor cell model. The protocol:
as §1

In assay [1], `CC(=O)OC[C@H]1O[C@@H]([S-])[C@H](OC(C)=O)[C@@H](OC(C)=O)[C@@H]1OC(C)=O.CCP(CC)CC.[Au+]` [Auranofin] came in with a concentration for 50% growth inhibition (GI50) of 1100 nM and an IC50 of 1100 nM. In addition, the “Effect on activity of Nrf2” value in the assay on Nrf2 is given as “activate”. Also, in assay [2], the GI50 turned out to be 1390 nM, the “Selectivity index MC3T3” value is 1.2, the IC50 stood at 1390 nM and the “Specificity Bone: MC3-T3 (normal immortalized)/U2OS (tumoral)” value is listed as 2.9. Moreover, in assay [3], the GI50 was 1090 nM and inhibition was half-maximal at 1090 nM (IC50). In assay [4], the GI50 came out at 810 nM and the IC50 is 809 nM.
As for `C[C@H]1[C@@H](O)O[C@@H]2O[C@]3(C)CC[C@H]4[C@H](C)CC[C@@H]1[C@@]24OO3` [DHA, dihydroartemisinin], the GI50 in assay [1] (Homo sapiens) was 4990 nM; in assay [2] (Mus musculus, Osteoblast), 3550 nM; in assay [3] (Homo sapiens), 1560 nM; in assay [4] (Homo sapiens) it was 5600 nM. The IC50 in assay [1] (Homo sapiens) is 4990 nM; in assay [2] (Mus musculus, Osteoblast), 3550 nM; in assay [3] (Homo sapiens) it was 1560 nM; in assay [4] (Homo sapiens) it was 5600 nM. Further, in assay [2], the “Selectivity index MC3T3” value is listed as 2.3. Besides, the “Specificity Bone: MC3-T3 (normal immortalized)/U2OS (tumoral)” value in assay [2] is listed as 0.9.
